According to ChEMBL document CHEMBL1201862, “PubChem BioAssay data set” (2004):
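Cultured in 96-well plates, cells were exposed to test compound for 48 hours across five concentrations. At the GI50, growth is halved.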 Active and inactive are the calls of the source. Cut-off read from the data, not from the text of the source: active = GI50 up to about 1.1 µM and inactive = higher.

Experiments:
Test in all cases: inhibition of tumour cell growth, NCI panel, 48 h
RPMI-8226 = tested on: RPMI-8226
SNB-19 = tested on: SNB-19
SN12C = tested on: SN12C
CCRF-CEM = tested on: CCRF-CEM
HCC 2998 = tested on: HCC 2998
NCI-H460 = tested on: NCI-H460
U-251 = tested on: U-251
HCT-15 = tested on: HCT-15
UO-31 = tested on: UO-31
M14 = tested on: M14
CAKI-1 = tested on: CAKI-1
TK-10 = tested on: TK-10
RXF 393 = tested on: RXF 393
SNB-75 = tested on: SNB-75
COLO 205 = tested on: COLO 205
SF-539 = tested on: SF-539
HT-29 = tested on: HT-29
SF-295 = tested on: SF-295
HOP-92 = tested on: HOP-92

SMILES	GI50 (RPMI-8226)	GI50 (SNB-19)	GI50 (SN12C)	GI50 (CCRF-CEM)	GI50 (HCC 2998)	GI50 (NCI-H460)	GI50 (U-251)	GI50 (HCT-15) [µM]	GI50 (UO-31)	GI50 (M14)	GI50 (CAKI-1)	GI50 (TK-10)	GI50 (RXF 393)	GI50 (SNB-75)	GI50 (COLO 205)	GI50 (SF-539)	GI50 (HT-29)	GI50 (SF-295)	GI50 (HOP-92)
C[N+](C)=c1nc(N2CCc3ccccc3C2)ss1.[O-][Cl+3]([O-])([O-])[O-]	69.8 µM (inactive)	> 100 µM (inactive)	> 100 µM (inactive)	82.8 µM (inactive)	> 100 µM (inactive)	> 100 µM (inactive)	> 100 µM (inactive)	98.2	> 100 µM (inactive)	> 100 µM (inactive)	> 100 µM (inactive)	> 100 µM (inactive)	77.4 µM (inactive)	83.6 µM (inactive)	42.8 µM (inactive)	> 100 µM (inactive)	–	–	–
Cc1cc2nc3c(C#N)c(-c4ccccc4)cc(Nc4ccc(F)cc4)n3c2cc1C	> 100 µM (inactive)	–	13.9 µM (inactive)	–	–	–	4.33 µM (inactive)	9.25	–	–	29.9 µM (inactive)	12.4 µM (inactive)	14.4 µM (inactive)	15.9 µM (inactive)	> 100 µM (inactive)	18.6 µM (inactive)	28.6 µM (inactive)	17.6 µM (inactive)	5.01 µM (inactive)
Brc1ccc2c(c1)C1(c3cc(Br)ccc3-2)c2cc(Br)ccc2-c2ccc(Br)cc21	> 100 µM (inactive)	> 100 µM (inactive)	> 100 µM (inactive)	> 100 µM (inactive)	> 100 µM (inactive)	> 100 µM (inactive)	> 100 µM (inactive)	> 100	> 100 µM (inactive)	> 100 µM (inactive)	> 100 µM (inactive)	> 100 µM (inactive)	> 100 µM (inactive)	–	> 100 µM (inactive)	> 100 µM (inactive)	> 100 µM (inactive)	> 100 µM (inactive)	–
CCOC(=O)C1S/C(=N\c2ccc(Cl)c(Cl)c2)N=C1C (stereo unspecified)	17.8 µM (inactive)	45.6 µM (inactive)	19.6 µM (inactive)	13.2 µM (inactive)	> 100 µM (inactive)	49.8 µM (inactive)	48.3 µM (inactive)	20.8	92.9 µM (inactive)	34.6 µM (inactive)	35.1 µM (inactive)	76.7 µM (inactive)	13 µM (inactive)	29.9 µM (inactive)	29 µM (inactive)	34 µM (inactive)	19.7 µM (inactive)	29.7 µM (inactive)	–
Cc1cn(C2CC(n3cncn3)C(C(C)O)O2)c(=O)[nH]c1=O (stereo unspecified)	> 100 µM (inactive)	> 100 µM (inactive)	> 100 µM (inactive)	> 100 µM (inactive)	> 100 µM (inactive)	> 100 µM (inactive)	> 100 µM (inactive)	> 100	> 100 µM (inactive)	> 100 µM (inactive)	–	> 100 µM (inactive)	> 100 µM (inactive)	> 100 µM (inactive)	> 100 µM (inactive)	> 100 µM (inactive)	> 100 µM (inactive)	> 100 µM (inactive)	> 100 µM (inactive)
COC(OC)c1cccc2c1C1(O)CCC3(CC21)OCCCCO3 (stereo unspecified)	> 100 µM (inactive)	> 100 µM (inactive)	> 100 µM (inactive)	> 100 µM (inactive)	> 100 µM (inactive)	> 100 µM (inactive)	> 100 µM (inactive)	> 100	> 100 µM (inactive)	> 100 µM (inactive)	> 100 µM (inactive)	> 100 µM (inactive)	> 100 µM (inactive)	> 100 µM (inactive)	> 100 µM (inactive)	> 100 µM (inactive)	> 100 µM (inactive)	> 100 µM (inactive)	–
N#Cc1c2c(c(Nc3cccc(C(F)(F)F)c3)n3c1nc1ccccc13)CCC2	> 100 µM (inactive)	–	> 100 µM (inactive)	–	–	–	> 100 µM (inactive)	> 100	–	–	> 100 µM (inactive)	> 100 µM (inactive)	> 100 µM (inactive)	> 100 µM (inactive)	> 100 µM (inactive)	> 100 µM (inactive)	> 100 µM (inactive)	> 100 µM (inactive)	6.5 µM (inactive)
CC(C)(C)NN=C1C(C)(C)C(=NNC(C)(C)C)C1(C)C	> 100 µM (inactive)	> 100 µM (inactive)	> 100 µM (inactive)	–	> 100 µM (inactive)	> 100 µM (inactive)	> 100 µM (inactive)	> 100	> 100 µM (inactive)	> 100 µM (inactive)	> 100 µM (inactive)	> 100 µM (inactive)	> 100 µM (inactive)	> 100 µM (inactive)	> 100 µM (inactive)	> 100 µM (inactive)	> 100 µM (inactive)	> 100 µM (inactive)	> 100 µM (inactive)
C/C(CN1C(=O)c2ccccc2C1=O)=N\NS(C)(=O)=O	> 100 µM (inactive)	> 100 µM (inactive)	> 100 µM (inactive)	> 100 µM (inactive)	> 100 µM (inactive)	> 100 µM (inactive)	> 100 µM (inactive)	> 100	> 100 µM (inactive)	> 100 µM (inactive)	> 100 µM (inactive)	> 100 µM (inactive)	> 100 µM (inactive)	> 100 µM (inactive)	> 100 µM (inactive)	> 100 µM (inactive)	> 100 µM (inactive)	> 100 µM (inactive)	–
CCOC(=O)C1Oc2ccc([N+](=O)[O-])c3c2C1(O)CCC3 (stereo unspecified)	> 100 µM (inactive)	> 100 µM (inactive)	> 100 µM (inactive)	> 100 µM (inactive)	> 100 µM (inactive)	33.4 µM (inactive)	> 100 µM (inactive)	> 100	47.2 µM (inactive)	> 100 µM (inactive)	–	> 100 µM (inactive)	> 100 µM (inactive)	> 100 µM (inactive)	> 100 µM (inactive)	> 100 µM (inactive)	> 100 µM (inactive)	> 100 µM (inactive)	> 100 µM (inactive)
N#C/C(=C/c1cccc(Oc2ccccc2)c1)c1ccccc1	> 100 µM (inactive)	–	> 100 µM (inactive)	> 100 µM (inactive)	> 100 µM (inactive)	> 100 µM (inactive)	> 100 µM (inactive)	> 100	> 100 µM (inactive)	> 100 µM (inactive)	> 100 µM (inactive)	> 100 µM (inactive)	–	> 100 µM (inactive)	55 µM (inactive)	> 100 µM (inactive)	> 100 µM (inactive)	4.95 µM (inactive)	93.8 µM (inactive)
O=C(Cc1ccccc1)NN1C(=O)C(Cl)C1c1ccc(O)cc1 (stereo unspecified)	> 100 µM (inactive)	> 100 µM (inactive)	> 100 µM (inactive)	> 100 µM (inactive)	> 100 µM (inactive)	> 100 µM (inactive)	> 100 µM (inactive)	> 100	64.7 µM (inactive)	> 100 µM (inactive)	> 100 µM (inactive)	> 100 µM (inactive)	> 100 µM (inactive)	47.2 µM (inactive)	> 100 µM (inactive)	–	> 100 µM (inactive)	> 100 µM (inactive)	–
O=C(/C=C/c1ccc(Cl)cc1)c1nc2ccccc2[nH]1	2.19 µM (inactive)	34.6 µM (inactive)	37.2 µM (inactive)	3.54 µM (inactive)	12.8 µM (inactive)	53 µM (inactive)	–	17.5	10.9 µM (inactive)	31.8 µM (inactive)	3.44 µM (inactive)	14.5 µM (inactive)	–	11.7 µM (inactive)	16.6 µM (inactive)	6.98 µM (inactive)	21.5 µM (inactive)	22 µM (inactive)	> 100 µM (inactive)
N/C(=N\N=C=C1C(=O)Nc2ccc(F)cc21)NO	–	–	> 100 µM (inactive)	98.2 µM (inactive)	> 100 µM (inactive)	74.5 µM (inactive)	> 100 µM (inactive)	> 100	–	> 100 µM (inactive)	28 µM (inactive)	> 100 µM (inactive)	> 100 µM (inactive)	21.3 µM (inactive)	> 100 µM (inactive)	> 100 µM (inactive)	> 100 µM (inactive)	> 100 µM (inactive)	65.3 µM (inactive)
CCO/C=C\C12CCCC1NC(c1ccccc1)(c1ccccc1)O2 (stereo unspecified)	–	45.7 µM (inactive)	25.7 µM (inactive)	21.5 µM (inactive)	–	48.8 µM (inactive)	33.3 µM (inactive)	–	28.8 µM (inactive)	22.5 µM (inactive)	23.3 µM (inactive)	31.5 µM (inactive)	31 µM (inactive)	19.5 µM (inactive)	–	25.3 µM (inactive)	23.2 µM (inactive)	32.7 µM (inactive)	24 µM (inactive)
C=CCC1([C@H](C)[C@@H](OC(C)=O)c2cc(OC)c(OC)c(OC)c2)C[C@@H](OC)CCC1=O (stereo partly specified)	10.8 µM (inactive)	–	17.7 µM (inactive)	3.3 µM (inactive)	–	17.7 µM (inactive)	13.8 µM (inactive)	14.2	–	15.6 µM (inactive)	70.8 µM (inactive)	51.3 µM (inactive)	12.9 µM (inactive)	18 µM (inactive)	19.1 µM (inactive)	16.4 µM (inactive)	14.1 µM (inactive)	16 µM (inactive)	23 µM (inactive)
COc1ccc(/C=C\c2cc(OC)c(OC(C)=O)c(OC)c2)cc1	12.8 µM (inactive)	7.24 µM (inactive)	7.21 µM (inactive)	5.46 µM (inactive)	10.7 µM (inactive)	2.49 µM (inactive)	4.21 µM (inactive)	5.12	15.7 µM (inactive)	18.2 µM (inactive)	25.1 µM (inactive)	–	–	2.84 µM (inactive)	34.4 µM (inactive)	2.32 µM (inactive)	12.4 µM (inactive)	–	19.1 µM (inactive)
